Test systems include COLO 205 colon; PC-3 prostate; MOLT-4 leukemia; OVCAR-5 ovarian; HL-60(TB) leukemia; M14 melanoma; SF-268 CNS; HT29 colon; A498 renal; CCRF-CEM leukemia.
What all share (experiment): NCI tumour cell line growth inhibition, 48 h

“And” between values parts separate entries of the source, which are not always exact repeats. Equal entries are not always repeated.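 Cells were grown in 96-well plates and exposed to each compound for 48 hours at five concentrations; endpoints were interpolated linearly between bracketing concentrations, or set to the highest concentration if not reached. Here, GI50 denotes the concentration required for 50% inhibition of growth. TGI is the concentration that stops growth completely.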

This is an account of results in PubChem BioAssay (NCI).

Consider `COc1cc2c3c(n(CCCN)c(=O)c2cc1OC)-c1ccc(F)cc1C3=O`, for which the GI50 in the test on COLO 205 colon is 1.79 µM; with PC-3 prostate, 1.41 µM; in the test on MOLT-4 leukemia, 0.385 µM; with OVCAR-5 ovarian, 10.4 µM; with HL-60(TB) leukemia it was 8.15 µM; in the test with M14 melanoma, 1.44 µM. Also, the GI50 in the test on SF-268 CNS is 3.08 µM; in the test with HT29 colon it was 1.03 µM; in the test on A498 renal, 14.2 µM; in the test on CCRF-CEM leukemia, 0.17 µM. Moreover, the TGI worked out at 5.4 µM with COLO 205 colon; 6.64 µM in the test on PC-3 prostate; 4.13 µM in the test with MOLT-4 leukemia; 22.7 µM with OVCAR-5 ovarian; 24.9 µM in the test on HL-60(TB) leukemia; 11.4 µM with M14 melanoma. Also, the TGI in the test with SF-268 CNS is 20.3 µM; in the test on HT29 colon it was 3.18 µM; in the test on A498 renal, 28.5 µM; with CCRF-CEM leukemia, 0.987 µM.

On to `N#Cc1c[nH]n2ccnc12`, for which the TGI with COLO 205 colon, in the test on PC-3 prostate, in the test on MOLT-4 leukemia, in the test with OVCAR-5 ovarian, with HL-60(TB) leukemia and with M14 melanoma was > 100 µM throughout. Moreover, the TGI in the test on SF-268 CNS, in the test on HT29 colon, with A498 renal and with CCRF-CEM leukemia was > 100 µM in each case.

As for `C(CCc1nnc2c(n1)CCCC2)Cc1nnc2c(n1)CCCC2`, the TGI with COLO 205 colon, in the test with PC-3 prostate, with MOLT-4 leukemia, in the test on OVCAR-5 ovarian, in the test on HL-60(TB) leukemia and in the test on M14 melanoma was > 100 µM in each case. Further, the TGI with SF-268 CNS, in the test with HT29 colon, with A498 renal and in the test on CCRF-CEM leukemia was > 100 µM each time.

As for `CC(C)(C)OC(=O)NCCCCCCCCn1c2c(c3ccccc3c1=O)C(=O)c1ccccc1-2`, the GI50 was > 50 µM with COLO 205 colon; > 50 µM in the test with PC-3 prostate; > 50 µM with MOLT-4 leukemia; > 43 µM in the test with OVCAR-5 ovarian; > 50 µM with HL-60(TB) leukemia; > 50 µM with M14 melanoma. Further, the GI50 with SF-268 CNS was 19.5 µM; with HT29 colon, > 50 µM; in the test on A498 renal it was 15.5 µM. Also, the TGI with COLO 205 colon, in the test on PC-3 prostate, with MOLT-4 leukemia, in the test on OVCAR-5 ovarian, in the test with HL-60(TB) leukemia and in the test on M14 melanoma was > 50 µM throughout. In addition, the TGI in the test on SF-268 CNS was > 50 µM; in the test with HT29 colon, > 50 µM; in the test with A498 renal, > 47.7 µM; in the test on CCRF-CEM leukemia, > 11.4 µM.

With `COC(=O)c1c2c(c(C)[n+]([O-])c1C)C(=O)C=C(NCc1cccc(OC)c1)C2=O`, the GI50 in the test with COLO 205 colon is 0.293 µM; in the test with PC-3 prostate, 0.333 µM; in the test on MOLT-4 leukemia, 1.09 µM; in the test on OVCAR-5 ovarian, 1.31 µM; in the test on HL-60(TB) leukemia, 0.317 µM; in the test on M14 melanoma, 0.405 µM. The GI50 in the test with SF-268 CNS was 1.26 µM; in the test with HT29 colon it was 0.37 µM; with A498 renal it was 1.31 µM; with CCRF-CEM leukemia it was 0.471 µM. Besides, the TGI in the test on COLO 205 colon is 0.928 µM; in the test with PC-3 prostate it was 2.73 µM; in the test with MOLT-4 leukemia, 3.54 µM; in the test with OVCAR-5 ovarian, 2.77 µM; with HL-60(TB) leukemia, 1.15 µM; with M14 melanoma, 1.54 µM. The results for the TGI in the test on SF-268 CNS, in the test on HT29 colon and with A498 renal were 4.21 µM, 1.54 µM and 2.59 µM, respectively.

On to `COc1cc2c3c(n(CCN)c(=O)c2cc1OC)-c1cc2c(cc1C3=O)OCO2`, for which the GI50 with COLO 205 colon is 0.8 µM; in the test with PC-3 prostate, 0.671 µM; in the test with MOLT-4 leukemia, 0.084 µM; in the test on OVCAR-5 ovarian, 1.95 µM; with M14 melanoma, < 0.0185 µM; in the test with SF-268 CNS it was 0.749 µM. Moreover, the results for the GI50 with A498 renal and in the test with CCRF-CEM leukemia were 3.48 µM and < 0.01 µM, respectively. Moreover, the TGI in the test with COLO 205 colon is 4.4 µM; in the test with PC-3 prostate it was 2.89 µM; with MOLT-4 leukemia, > 100 µM; in the test with OVCAR-5 ovarian, 3.74 µM; in the test with HL-60(TB) leukemia, > 100 µM; in the test on M14 melanoma, 1.41 µM. Moreover, the TGI with SF-268 CNS worked out at 3.18 µM; in the test with A498 renal, 18.9 µM.

In the case of `CCCCn1c2c(c3ccccc3c1=O)C(=O)c1ccccc1-2`, the TGI in the test on COLO 205 colon, with PC-3 prostate, in the test with OVCAR-5 ovarian, in the test on HL-60(TB) leukemia, in the test with M14 melanoma and in the test with SF-268 CNS was > 100 µM in each case. For the same compound, the TGI in the test with HT29 colon, in the test on A498 renal and in the test on CCRF-CEM leukemia was > 100 µM each time.

For the compound `CO[C@H]1[C@H](O)[C@H](O[C@H]2CC[C@@]3(C)[C@H](CC[C@@H]4[C@@H]3CC[C@]3(C)[C@@H](C5=CC(=O)OC5)CC[C@]43O)C2)O[C@@H](C)[C@@H]1O`, the TGI is 0.00509 µM and 0.0316 µM in the test with COLO 205 colon; 0.524 µM with PC-3 prostate; 0.00766 µM and < 0.0265 µM with MOLT-4 leukemia; 0.00363 µM in the test on HL-60(TB) leukemia; 0.00302 µM and 0.0169 µM in the test on M14 melanoma; 0.00183 µM and 0.0166 µM with SF-268 CNS. Also, the TGI is 0.00148 µM in the test with HT29 colon, 0.0252 µM in the test with A498 renal and 0.00107 µM with CCRF-CEM leukemia. Further, the figures for the GI50 in the test with PC-3 prostate, in the test on HL-60(TB) leukemia and in the test with CCRF-CEM leukemia were 0.00525 µM, 0.00175 µM and 0.000406 µM, respectively.

`Nc1ccn([C@H]2C[C@@H](O)[C@@H](CO)S2)c(=O)n1`: the GI50 is > 89.8 µM in the test with COLO 205 colon; > 100 µM in the test with PC-3 prostate; > 100 µM in the test on MOLT-4 leukemia; > 100 µM in the test on OVCAR-5 ovarian; 14.5 µM with HL-60(TB) leukemia; > 100 µM in the test with M14 melanoma. Moreover, the GI50 with SF-268 CNS, with HT29 colon and in the test with A498 renal was > 100 µM each time. Moreover, the TGI with COLO 205 colon, in the test on PC-3 prostate, in the test with MOLT-4 leukemia, in the test with OVCAR-5 ovarian, in the test with HL-60(TB) leukemia and in the test with M14 melanoma was > 100 µM throughout. In addition, the TGI with SF-268 CNS, with HT29 colon and in the test on A498 renal was > 100 µM throughout.
